Assay results from US20090117154A1, “SYNTHETIC POLYVALENT CARBOHYDRATES AS COMPONENTS OF MICROBICIDES” (priority 2005, published 2009).

Target: T1, DC-SIGN (Homo sapiens, UniProt Q9NNX6)
T1 construct: made in house
Experiment: Inhibition of the binding of soluble DC-SIGN to immobilized HIV-1 Bal gp120 (plate ELISA)
Details: soluble DC-SIGN/mAb complex, gp120 captured on D7324 plate; preliminary assay; FIG. 3
Protocol: Preliminary assays were conducted on the inhibition of the synthetic polyvalent compounds against the binding between HIV-1 gp120 and DC-SIGN. Specifically, plates were coated with 5 ug/mL D7324 anti-gp120 capture antibody, in 1×PBS O/N at RT. Blocking buffer was 5% BSA in 1×TBST+1 mM CaCL2, assay/dilution buffer was 2% BSA in 1×TBST+1 mM CaCL2 and wash buffer was 1×TBST+1 mM CaCL2 (4 washes, 200 uL per well). Gp120 (CHOK1, uQuant) was captured on the D7324 plate at saturation, 500 ng/mL in assay buffer for 2 hour at RT. sDC-SIGN supernatant (Nov. 6, 2004) was supplemented with 1 mM CaCL2 and pre-complexed with 3 ug/mL anti-DC-SIGN mAb (120507, Sigma) for 1 hour at RT. Mannose products were titered 1:2 in assay buffer (Starts 1:4 in column 2), sDC-SIGN/mAb complexes were added to the titered mannose at about 1:5 (155 uL mannose+45 uL sDC-SIGN/mAb) (no sDC-SIGN in column 12), sDC-SIGN/mAb complexes mixed with mannose compounds were allowed to bind to the Gp120 plate for 1 hour at RT. Any bound sDC-SIGN/mAb complexes were detected with goat anti-mouse-IgG-HRP (Axcell) 1:2000 in assay buffer, absorbed with 2% sheep serum.

T1 sequence (Q9NNX6 59-404): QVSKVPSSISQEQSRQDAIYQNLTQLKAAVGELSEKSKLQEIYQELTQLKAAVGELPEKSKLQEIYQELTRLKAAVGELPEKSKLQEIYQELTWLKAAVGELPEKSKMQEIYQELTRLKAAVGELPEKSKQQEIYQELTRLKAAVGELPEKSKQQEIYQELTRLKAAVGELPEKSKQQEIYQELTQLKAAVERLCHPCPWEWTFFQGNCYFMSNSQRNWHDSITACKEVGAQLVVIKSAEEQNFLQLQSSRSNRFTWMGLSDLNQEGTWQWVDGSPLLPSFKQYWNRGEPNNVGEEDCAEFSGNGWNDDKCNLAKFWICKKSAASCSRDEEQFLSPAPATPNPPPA

## CC(=O)N[C@@H]1[C@@H](O)[C@H](O[C@@H]2O[C@H](CO)[C@@H](O[C@@H]3O[C@H](CO[C@H]4O[C@H](CO[C@H]5O[C@H](CO)[C@@H](O)[C@H](O)[C@@H]5O[C@H]5O[C@H](CO)[C@@H](O)[C@H](O)[C@@H]5O)[C@@H](O)[C@H](O[C@H]5O[C@H](CO)[C@@H](O)[C@H](O)[C@@H]5O[C@H]5O[C@H](CO)[C@@H](O)[C@H](O)[C@@H]5O)[C@@H]4O)[C@@H](O)[C@H](O[C@H]4O[C@H](CO)[C@@H](O)[C@H](O)[C@@H]4O[C@H]4O[C@H](CO)[C@@H](O)[C@H](O)[C@@H]4O[C@H]4O[C@H](CO)[C@@H](O)[C@H](O)[C@@H]4O)[C@@H]3O)[C@H](O)[C@H]2NC(C)=O)[C@@H](CO)O[C@H]1NC(=O)C[C@H](N)C(=O)O [Man9, Man9GlcNAc2Asn]
  inhibition of the binding of soluble DC-SIGN to immobilized gp120 (in words): much better than the disaccharide and monosaccharide in inhibition
